# Entries after “also recorded” stand apart in the source; their conditions may differ.
# Columns and labels:
# [1] = tested on: E. coli; experiment: Minimal inhibitory concentration, E. coli; assay type: cell-based; settings: Escherichia coli, ATCC25922; E. coli ATCC 25922; 1/2×TSB, 37° C., 18 to 24 hours
# Procedure: (§1) Squalamine was assayed in vitro against several microbial organisms to evaluate its spectrum of activity.
# (§2) Minimal inhibitory concentrations for the bacteria and yeast were determined by incubating 0.9-11×10^5 colony-forming units/ml of log-phase organisms in 1/2×tryptica soy broth (TSB) with increasing concentrations of sample in static 96-2311 microtiter plates (Corning, Inc., Corning, N.Y.) at 37° C. for 18 to 24 hours. The minimal inhibitory concentration is the concentration of sample at which no growth was observed. Control incubation in the absence of […] served to set a baseline value.
# (§3) Initial sample concentrations were 2 mg/ml in 250 mM sodium acetate pH 6.6, 11.2 mM HCl, except taurolithocholic acid 3-sulfate which was 2 mg/ml in 50 mM sodium acetate, and squalamine to which HCl was not added because it was acidic following the last step of purification. Spermidine HCl, taurolithocholic acid 3-sulfate, melittin, holothurin and ampicillin were purchased from Sigma (St. Louis, Miss.). CHAPS (3-[(3-cholamidopropyl)dimethylammonio]-1-propane sulfonate dihydrate) was purchased from Aldrich (Milwaukee, Wis.). Conessine was purchased from Aldrich Rare Chemicals Division (Milwaukee, Wis.). Magainin-II amide and CPF-amide were made by Magainin Pharmaceuticals, Inc. (Plymouth Meeting, Penn.). The CPF peptide used in the assay has the sequence […]-NH2. (Richter, K., et al., J. Biol. Chem. 261, 3676-3680 (1986).
# [2] = tested on: Staph. aureus; experiment: Minimal inhibitory concentration, Staph. aureus; assay type: cell-based; settings: Staphylococcus aureus, ATCC29213; Staph. aureus ATCC 29213; 1/2×TSB, 37° C., 18 to 24 hours
# Procedure: as §1, §2, §3
# [3] = tested on: Pseudomonas aeruginosa; experiment: Minimal inhibitory concentration, Pseudomonas aeruginosa; assay type: cell-based; settings: ATCC27853; Pseudomonas aeruginosa ATCC 27853; 1/2×TSB, 37° C., 18 to 24 hours
# Procedure: as §1, §2, §3
# [4] = tested on: Strep. faecalis; experiment: Minimal inhibitory concentration, Strep. faecalis; assay type: cell-based; settings: Enterococcus faecalis, ATCC29212; Strep. faecalis ATCC 29212; 1/2×TSB, 37° C., 18 to 24 hours
# Procedure: as §1, §2, §3
# [5] = tested on: Candida albicans; experiment: Minimal inhibitory concentration, Candida albicans; assay type: cell-based; settings: ATCC14053; Candida albicans ATCC 14053; 1/2×TSB, 37° C., 18 to 24 hours
# Procedure: as §1, §2, §3
# [6] = tested on: Proteus vulgaris; experiment: Minimal inhibitory concentration, Proteus vulgaris; assay type: cell-based; settings: ATCC13315; Proteus vulgaris ATCC 13315; 1/2×TSB, 37° C., 18 to 24 hours
# Procedure: as §1, §2, §3
# [7] = tested on: Serratia marcescens; experiment: Minimal inhibitory concentration, Serratia marcescens; assay type: cell-based; settings: ATCC8100; Serratia marcescens ATCC 8100; 1/2×TSB, 37° C., 18 to 24 hours
# Procedure: as §1, §2, §3
# [8] = tested on: Paramecium caudatum; experiment: Minimal disruptive concentration, Paramecium caudatum; assay type: cell-based; settings: 1% trypticase soy broth, light microscopy for ten minutes, read-out: Minimal Inhibitory Concentration (minimal disruptive concentration for the protozoa)
# Procedure: as §1, §3
# (§4) Minimal disruptive concentration (the concentration at which physical disruption of the protozoa occurred) was determined for the protozoa by adding […] of sample (in sodium acetate as above) to […] of 1% trypticase soy broth containing P. caudatum (Nasco, Fort Atkinson, Wiss,). Organisms were observed by light microscopy for ten minutes.
# [9] = tested on: several microbial organisms; experiment: In vitro antimicrobial spectrum (bacteria, fungi, protozoa), in words; assay type: cell-based
# Procedure: as §1, §2, §3, §4
# [10] = tested on: human erythrocytes; experiment: Hemolytic activity against human erythrocytes; assay type: cell-based
# Procedure: Because of its structural resemblance to steroidal detergents, squalamine was assayed for its hemolytic activity against human erythrocytes.
# Each sample was diluted in H2 O and was added to a 10% (vol/vol) suspension of human erythrocytes in phosphate buffered saline (PBS). Erythrocytes were collected with heparin and washed once in 1×PBS before the assay. Samples were incubated at 37° C. for ten minutes, centrifuged at 12,000× g for one minute, and the OD350 of the supernatant was measured. Addition of Triton X-100 (final concentration 0.1%) defined 100% hemolysis.
# [11] = Tissue distribution of squalamine in Squalus acanthias
# Procedure: The tissue distribution of squalamine was determined by extraction of freshly obtained tissues of Squalus using the same procedure as described in Example 1 for the stomach extraction. Other Squalus acanthias tissues (about 50 g of liver, gallbladder, spleen, testes, gill and intestine) were extracted as above, and purified through the C18 HPLC stage. Antimicrobial activity was detected in each tissue, and one reversed-phasefraction from each tissue was analyzed by FAB mass spectroscopy. The yield from the stomach was determined by spotting several dilutions onto a TLC plate and comparing the ninhydrin staining to a spermidine standard curve. The result agreed with the estimate obtained by NMR spectroscopy when the squalamine signal intensity was compared to that of a standard. An estimate of the yield of squalamine from other tissues was made by comparing the antimicrobial activity of reversed-phase fractions to the activity from the stomach.
# [12] = tested on: E. coli D31; experiment: Heat resistance of antimicrobial activity (boiling); assay type: physicochemical; settings: 0.2 μg/ml in 1×phosphate buffered saline, boiled fifteen minutes, E. coli D31 lawn
# Procedure: Squalamine at 0.2 μg/ml in 1×phosphate buffered saline was boiled for fifteen minutes. A 2 μl aliquot of the sample before and after boiling was applied to a lawn of E. coli D31.
# [13] = tested on: E. coli D31; experiment: Protease resistance of antimicrobial activity (proteinase K); assay type: in vitro ADME; settings: proteinase K 2 mg/ml, one hour, 37° C.; E. coli D31 lawn
# Procedure: Proteinase K (final concentration 2 mg/ml) was added to 0.2 μg/μl squalamine or 0.8 μg/μl magainin II amide in 1×phosphate-buffered saline. After a one hour incubation at 37° C., 2 μl of each sample was applied to the lawn of E. coli D31.
compound,measurement,setting,value
"CC(C)C(CC[C@@H](C)[C@H]1CC[C@H]2[C@@H]3[C@H](O)C[C@H]4C[C@@H](NCCCNCCCCN)CC[C@]4(C)[C@H]3CC[C@]12C)OS(=O)(=O)O (stereo partly drawn) [Squalamine, 3β(N-[3-aminopropyl]-1,4-butanediamine)-7α,24.zeta.-dihydroxy-5α-cholestane 24-sulfate]",MIC,[1],1 to 2 µg/mL
same,MIC,[2],1 to 2 µg/mL
same,MIC,[3],4 to 8 µg/mL
same,MIC,[4],1 to 2 µg/mL
same,MIC,[5],4 to 8 µg/mL
same,MIC,[6],4 to 8 µg/mL
same,MIC,[7],> 125 µg/mL
same,MIC,[8],4 to 8 µg/mL
same,antibacterial activity (in words),[9]; bacteria of Table I,compares in antibacterial potency to ampicillin
same,antibiotic activity (in words),"[9]; bacteria, fungi, protozoa, concentration range studied","broad range of potent antibiotic activity against a plurality of microorganisms including gram-positive and gram-negative bacteria, fungi, protozoa and the like; also recorded: somewhat more potent than the Xenopus antimicrobial peptides"
same,hemolytic activity (in words),"[10]; FIG. 3, 37° C., ten minutes","exhibits some hemolytic activity, it occurs at higher concentrations than observed for a non-selective membrane disruptive amphipathic peptide, such as mellitin"
same,antibiotic versus hemolytic concentration / selectivity (in words),[10]; antibiotic activity compared with erythrocyte disruption,exerts antibiotic activity at concentrations below which erythrocyte disruption is observed
same,squalamine content of tissue,[11]; gills,0.5 μg/gm
same,squalamine content of tissue,[11]; intestine,0.02 μg/gm
same,squalamine content of tissue,[11]; liver and gall bladder,4-7 μg/gm
same,squalamine content of tissue,[11]; spleen,about 2 μg/gm
same,squalamine content of tissue,[11]; stomach,1 μg/gm
same,squalamine content of tissue,[11]; testes,about 2 μg/gm
same,antimicrobial activity after boiling,[12],retained its antimicrobial activity after boiling
same,antimicrobial activity after boiling,[12]; listed as squalamine,resistant to boiling and protease treatment
same,antimicrobial activity after proteinase K digestion,[13],retained its activity; also recorded: resistant to boiling and protease treatment

# Reference: patent publication US5192756A, “Aminosterol antibiotic” (The Children's Hospital of Pennsylvania, priority 1992, dated 1993)
